In one data set the target is T1, Vela (Homo sapiens, UniProt P04062).
T1 construct: purchased HGT/Shire, Cambridge, MA Lot#FEC06-002
T1 sequence (P04062 40-536): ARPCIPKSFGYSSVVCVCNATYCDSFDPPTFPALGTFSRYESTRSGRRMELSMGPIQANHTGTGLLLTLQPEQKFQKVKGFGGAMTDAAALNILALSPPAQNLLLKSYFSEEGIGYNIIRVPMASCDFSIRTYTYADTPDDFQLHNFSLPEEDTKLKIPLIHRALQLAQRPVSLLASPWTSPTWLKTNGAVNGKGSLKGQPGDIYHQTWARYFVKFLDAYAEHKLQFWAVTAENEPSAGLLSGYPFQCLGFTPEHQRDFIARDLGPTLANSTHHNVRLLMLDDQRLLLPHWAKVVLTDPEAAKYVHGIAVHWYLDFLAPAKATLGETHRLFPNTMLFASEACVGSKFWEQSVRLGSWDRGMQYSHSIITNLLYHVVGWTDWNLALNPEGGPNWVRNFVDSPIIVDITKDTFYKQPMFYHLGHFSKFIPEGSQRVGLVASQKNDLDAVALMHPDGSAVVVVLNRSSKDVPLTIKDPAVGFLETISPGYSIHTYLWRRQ
In words: Inhibition of Vela by active site-directed GCase inhibitors (4MU-Glc substrate). It counts as biochemical. Particulars: 8 pmol enzyme protein; SE ≤20%.

The target of another data set is T2, Imig (Homo sapiens, UniProt P04062, R534H).
T2 construct: purchased Genzyme, Cambridge, MA Lot#A7021H04; host or cells: CHO cells
T2 sequence (P04062 40-536 R534H): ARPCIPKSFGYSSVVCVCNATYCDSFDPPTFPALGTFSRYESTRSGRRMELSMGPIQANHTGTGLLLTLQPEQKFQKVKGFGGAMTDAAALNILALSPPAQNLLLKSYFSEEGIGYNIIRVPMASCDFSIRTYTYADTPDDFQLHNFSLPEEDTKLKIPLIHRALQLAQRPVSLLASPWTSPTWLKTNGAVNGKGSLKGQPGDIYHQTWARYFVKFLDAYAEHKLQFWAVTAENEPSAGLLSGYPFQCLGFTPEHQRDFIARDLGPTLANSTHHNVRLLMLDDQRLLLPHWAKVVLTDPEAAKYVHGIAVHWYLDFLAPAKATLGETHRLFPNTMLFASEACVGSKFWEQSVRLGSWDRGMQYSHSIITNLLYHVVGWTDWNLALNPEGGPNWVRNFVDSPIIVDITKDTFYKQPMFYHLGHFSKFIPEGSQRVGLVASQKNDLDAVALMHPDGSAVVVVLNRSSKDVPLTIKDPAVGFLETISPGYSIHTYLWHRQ
In words: Inhibition of Imig by active site-directed GCase inhibitors (4MU-Glc substrate). It counts as biochemical. Particulars: 8 pmol enzyme protein; SE ≤20%.

A further data set concerns 9 V/null mouse. More on the design: method as in PMID 17509920. Particulars: cited from earlier work.
The test system of a further data set is patients. Conditions: Gaucher disease patients; cited from earlier work.

Turning to `O[C@H]1[C@H](O)[C@@H](O)[C@@H]2O[C@@H]2[C@@H]1O` (racemic) [Conduritol B epoxide], the results for the half-inhibitory concentration (IC50) on Vela and on Imig were 99.8 µM and 146 µM, respectively.
With `CCCCCCCC(=O)N[C@H](CN1CCCC1)[C@H](O)c1ccc2c(c1)OCCO2` [Genz 112638], in the data set with 9 V/null mouse, the “effect on alveolar Gaucher cells” value is given as “clearance of the alveolar Gaucher cells”.

B1: alglucerase (protein, UniProt P04062 40-536, looked up)
Lysosomal acid …: ARPCIPKSFGYSSVVCVCNATYCDSFDPPTFPALGTFSRYESTRSGRRMELSMGPIQANHTGTGLLLTLQPEQKFQKVKGFGGAMTDAAALNILALSPPAQNLLLKSYFSEEGIGYNIIRVPMASCDFSIRTYTYADTPDDFQLHNFSLPEEDTKLKIPLIHRALQLAQRPVSLLASPWTSPTWLKTNGAVNGKGSLKGQPGDIYHQTWARYFVKFLDAYAEHKLQFWAVTAENEPSAGLLSGYPFQCLGFTPEHQRDFIARDLGPTLANSTHHNVRLLMLDDQRLLLPHWAKVVLTDPEAAKYVHGIAVHWYLDFLAPAKATLGETHRLFPNTMLFASEACVGSKFWEQSVRLGSWDRGMQYSHSIITNLLYHVVGWTDWNLALNPEGGPNWVRNFVDSPIIVDITKDTFYKQPMFYHLGHFSKFIPEGSQRVGLVASQKNDLDAVALMHPDGSAVVVVLNRSSKDVPLTIKDPAVGFLETISPGYSIHTYLWRRQ
modifications: mannosyl-terminated glycans
For B1, the “patients who developed an IgG antibody response” value in the data set on patients is 13–15%.

In general, IC50 refers to the concentration that inhibits the measured activity by half.

Source of the values: article PMC2873993, “Comparative Therapeutic Effects of Velaglucerase Alfa and Imiglucerase in a Gaucher Disease Mouse Model” (PLoS ONE, 2010).
